Experimental data taken from the NIST ThermoML archive (doi:10.1016/j.jct.2018.12.009).

Experiment: molar heat capacity at constant volume
Details: Mass density=329.2 kg/m3

CC(C)O [propan-2-ol]
molar heat capacity at constant volume [J/K/mol]
Details	Fluid (supercritical or subcritical phases)	Liquid
314.29 K	177.46	–
314.52 K	182.81	–
314.8 K	184.67	–
315.05 K	181.49	–
315.3 K	177.88	–
315.42 K	176.26	–
315.61 K	174.88	–
315.8 K	178.6	–
341.91 K	203.12	–
342.08 K	202.22	–
342.2 K	203.54	–
342.32 K	207.27	–
342.49 K	201.32	–
342.67 K	203.72	–
342.79 K	202.76	–
342.91 K	201.62	–
343.03 K	204.08	–
369.05 K	225.9	–
369.16 K	220.01	–
369.28 K	231.31	–
369.39 K	222.83	–
369.5 K	225.96	–
369.67 K	223.55	–
369.84 K	221.75	–
369.96 K	221.03	–
370.07 K	219.47	–
391.32 K	243.38	–
391.53 K	248.85	–
391.54 K	243.44	–
391.65 K	246.93	–
391.76 K	235.69	–
391.87 K	241.16	–
391.98 K	242.54	–
392.09 K	244.11	–
392.2 K	243.2	–
416.55 K	258.83	–
416.65 K	260.09	–
416.76 K	252.52	–
416.86 K	257.99	–
416.97 K	255.76	–
417.08 K	261.47	–
417.18 K	252.94	–
417.29 K	253.84	–
417.4 K	259.73	–
417.5 K	261.17	–
442.12 K	262.92	–
442.23 K	265.86	–
442.33 K	272.53	–
442.43 K	265.68	–
442.54 K	266.76	–
442.64 K	267.6	–
442.74 K	270.13	–
442.85 K	265.86	–
463.48 K	270.31	–
463.58 K	271.63	–
463.78 K	270.31	–
463.83 K	274.63	–
463.97 K	279.44	–
464.18 K	278.72	–
464.27 K	280.16	–
464.42 K	278.24	–
464.97 K	277.34	–
465.27 K	272.77	–
465.34 K	278.54	–
482.51 K	288.1	–
482.6 K	289.9	–
482.7 K	288.46	–
482.8 K	287.73	–
482.89 K	288.34	–
482.99 K	292	–
483.09 K	287.19	–
483.18 K	291.64	–
500.85 K	316.94	–
500.95 K	311.35	–
501.04 K	310.87	–
501.14 K	313.94	–
501.23 K	314.06	–
501.33 K	310.75	–
501.42 K	316.76	–
501.53 K	318.08	–
501.62 K	320.49	–
501.81 K	316.64	–
501.9 K	317.06	–
503.92 K	322.05	–
504.02 K	325.72	–
504.11 K	323.31	–
504.31 K	318.86	–
504.5 K	325.72	–
504.59 K	319.65	–
504.98 K	328.36	–
505.08 K	326.92	–
505.27 K	325.96	–
505.37 K	325.35	–
506.43 K	328.06	–
506.53 K	330.64	–
506.62 K	335.93	–
506.72 K	332.69	–
506.82 K	332.27	–
506.97 K	330.22	–
507.11 K	342.54	–
507.2 K	339.6	–
507.3 K	339.42	–
507.4 K	335.93	–
507.5 K	343.02	–
507.59 K	338.94	–
507.69 K	354.86	–
507.79 K	347.95	–
507.89 K	352.76	–
508.04 K	358.17	–
508.16 K	363.76	218.14
508.18 K	–	208.53
508.28 K	–	195.91
508.37 K	–	187.8
508.47 K	–	185.69
508.57 K	–	186.9
508.67 K	–	192.91
508.76 K	–	186.9
509.35 K	–	179.56
509.45 K	–	180.16
509.55 K	–	178.84
509.64 K	–	179.98
509.79 K	–	177.46
509.99 K	–	177.28
510.14 K	–	178.12
510.23 K	–	177.94
510.33 K	–	176.68
510.48 K	–	178.6
516.9 K	–	176.74
516.99 K	–	176.8
517.08 K	–	176.8
517.27 K	–	172.17
521.87 K	–	173.13
521.96 K	–	168.57
522.14 K	–	173.19
522.33 K	–	168.63
522.42 K	–	171.63
522.51 K	–	173.85
522.6 K	–	175.18
530.01 K	–	168.39
532.04 K	–	168.27
535.11 K	–	168.33
540.06 K	–	168.39
545.13 K	–	168.63
560.04 K	–	169.77
570.09 K	–	173.85
580.16 K	–	174.22
590.07 K	–	176.38
600.1 K	–	178.6
